{"source": "patent US7982030B2", "about": "“Synthesis of selenium-derivatized nucleosides, nucleotides, phosphoramidites, triphosphates and nucleic acids” (Georgia State University Research Foundation, Inc., priority 2001, dated 2011)", "molecular_target": "T1, DNA polymerase (Klenow Fragment) (Escherichia coli, UniProt P00582)", "T1 construct": "using a DNA polymerase (Klenow Fragment)", "T1 sequence (P00582 324-928)": "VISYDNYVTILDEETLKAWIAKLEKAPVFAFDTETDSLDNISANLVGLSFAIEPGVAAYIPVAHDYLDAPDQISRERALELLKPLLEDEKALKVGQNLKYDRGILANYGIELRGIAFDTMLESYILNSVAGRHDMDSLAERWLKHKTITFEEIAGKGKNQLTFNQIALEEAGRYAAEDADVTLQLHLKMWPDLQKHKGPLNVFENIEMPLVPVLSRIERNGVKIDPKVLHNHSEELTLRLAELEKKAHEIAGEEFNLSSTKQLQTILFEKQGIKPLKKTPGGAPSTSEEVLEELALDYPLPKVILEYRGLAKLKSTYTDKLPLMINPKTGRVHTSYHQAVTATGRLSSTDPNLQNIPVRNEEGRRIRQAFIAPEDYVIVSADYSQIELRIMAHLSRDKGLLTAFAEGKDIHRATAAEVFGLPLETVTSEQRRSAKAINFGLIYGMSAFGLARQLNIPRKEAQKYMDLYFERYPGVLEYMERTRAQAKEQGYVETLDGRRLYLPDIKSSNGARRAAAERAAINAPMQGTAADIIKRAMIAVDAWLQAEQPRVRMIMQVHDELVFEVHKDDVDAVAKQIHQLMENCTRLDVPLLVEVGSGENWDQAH", "experiment": "terminal extension on a DNA template: substrate recognition by Klenow", "type": "biochemical", "conditions": "3′-terminal extension on a DNA template", "protocol": "An alternative approach to label RNAs with selenium is based on the RNA 3′-labeling method (FIG. 9). See ref. 33. After a long RNA is prepared by transcription using ordinary NTPs, α-Se-dNTPs is transferred to its 3′-terminus on a DNA template using a DNA polymerase (Klenow Fragment). […] Experiments also reveal that the number of incorporated dNTPs is dependent on the length of the overhanging nucleotides of the template, and the terminal extension reaction giving full-length product with high yields in the presence of high dNTP concentration. The products may be purified by any one of a variety of methods well known in the art, such as for example, preparative anion exchange HPLC, to single nucleotide resolution for RNA as long as 70 nucleotides. (Ref 34). This terminal transfer approach can be very useful for medium size RNAs (up to 80 nucleotides). An analogous approach can be used to prepare Se-DNAs.", "data": [{"smiles": "Cc1cn(C2CC(O)C(COP(O)(=[Se])OP(=O)(O)OP(=O)(O)O)O2)c(=O)[nH]c1=O", "note": "(stereo not drawn) [α-Se-TTP 24]", "values": [{"measurement": "recognition as a substrate by Klenow", "value": "recognized α-Se-TTP 24 as a substrate"}]}]}
